In PubChem BioAssay (NCI):
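Five compound concentrations were applied to cells in 96-well plates for 48 hours; endpoints were derived by simple linear interpolation of the resulting dose-response curve. The concentration for full growth arrest is given as TGI.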

Tests used:
Assay in all cases: NCI tumour cell line growth inhibition, 48 h
[1] = test system: SNB-78 CNS
[2] = test system: DMS 114 small cell lung
[3] = test system: DLD-1 colon
[4] = test system: LXFL 529 NSCLC
[5] = test system: HOP-18 NSCLC
[6] = test system: P388/ADR leukemia
[7] = test system: P388 leukemia
[8] = test system: SN12K1 renal
[9] = test system: RXF-631 renal

CCOC(=O)C1(Br)S(=O)(=O)OCCOS1(=O)=O
TGI [1]: > 100 µM | TGI [2]: > 100 µM | TGI [3]: > 100 µM

O=c1c2c(c1=O)-c1ccccc1CN2
TGI [1]: > 100 µM | TGI [4]: > 100 µM | TGI [2]: > 100 µM | TGI [3]: > 100 µM

COc1cccc(NC(=O)C(=O)C2C=CCS2(=O)=O)c1 (centres undefined)
TGI [4]: > 100 µM | TGI [2]: > 100 µM | TGI [3]: > 100 µM | TGI [5]: > 100 µM

CCCCCCCCOC(=O)c1cc([N+](=O)[O-])c(Sc2ncnc3nc[nH]c23)c([N+](=O)[O-])c1
TGI [1]: 10.5 µM | TGI [6]: 0.458 µM | TGI [7]: 0.447 µM | TGI [2]: 1.81 µM | TGI [3]: 2.94 µM | TGI [8]: 2.64 µM | TGI [5]: 11.1 µM

C=C1Cc2cc(OC)c(OC)c(OC)c2-c2ccc(SC)c(=O)cc21
TGI [1]: 49.4 µM | TGI [4]: 1.81 µM | TGI [2]: < 0.0279 µM | TGI [3]: 3.7 µM | TGI [5]: 11.9 µM

COC(=O)C1(C)NCCc2c1[nH]c1ccccc21 (centres undefined)
TGI [4]: > 100 µM | TGI [2]: > 100 µM | TGI [3]: > 100 µM

CCCN(CCC)C1=Nc2ccccc2-n2cnnc2C1
TGI [1]: > 100 µM | TGI [4]: > 100 µM | TGI [2]: > 100 µM

O=c1ccnc2ccc3n[nH][nH]c3c12
TGI [1]: > 100 µM | TGI [4]: > 100 µM | TGI [2]: > 100 µM | TGI [3]: > 100 µM | TGI [5]: > 100 µM | TGI [9]: > 100 µM

CN(C(=O)c1ccco1)C(=S)N1CCN(c2ccccn2)CC1
TGI [1]: > 100 µM | TGI [4]: > 100 µM | TGI [3]: > 100 µM | TGI [5]: > 100 µM

COC(=O)C1C=CCON2CCc3c(n(S(=O)(=O)c4ccccc4)c4ccccc34)C12 (centres undefined)
TGI [1]: > 100 µM | TGI [4]: > 100 µM | TGI [2]: > 87.7 µM | TGI [3]: > 22.8 µM | TGI [5]: > 100 µM
